Tests used:
Assay type in all cases: in vivo
[1] = tested on: barnyardgrass (Echinochloa crus-galli); experiment: Test C greenhouse herbicide test, pre- and postemergence
Procedure, shortened: (§1)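 Two application timings: at sowing into a soil/sand blend, and on 2–18 cm seedlings in peat-vermiculite potting mix. A non-phytotoxic, surfactant-containing solvent carried the compounds. Plants were compared with controls and rated visually on 0–100 after 13–15 d.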

[2] = tested on: blackgrass (Alopecurus myosuroides); experiment: as above
Procedure, shortened: as §1

corn (Zea mays) = experiment: as above
Procedure, shortened: as §1

[3] = tested on: crabgrass, large (large crabgrass, Digitaria sanguinalis); experiment: as above
Procedure, shortened: as §1

[4] = tested on: foxtail, giant (giant foxtail, Setaria faberii); experiment: as above
Procedure, shortened: as §1

[5] = tested on: johnsongrass (Sorghum halepense); experiment: as above
Procedure, shortened: as §1

[6] = tested on: lambsquarters (Chenopodium album); experiment: as above
Procedure, shortened: as §1

[7] = tested on: morningglory (Ipomoea coccinea); experiment: as above
Procedure, shortened: as §1

[8] = tested on: nutsedge, yellow (yellow nutsedge, Cyperus esculentus); experiment: as above
Procedure, shortened: as §1

[9] = tested on: oilseed rape (Brassica napus); experiment: as above
Procedure, shortened: as §1

[10] = tested on: pigweed (Amaranthus retroflexus); experiment: as above
Procedure, shortened: as §1

[11] = tested on: velvetleaf (Abutilon theophrasti); experiment: as above
Procedure, shortened: as §1

[12] = tested on: waterhemp (common waterhemp, Amaranthus rudis); experiment: as above
Procedure, shortened: as §1

[13] = tested on: wheat (winter wheat, Triticum aestivum); experiment: as above
Procedure, shortened: as §1

kochia (Kochia scoparia) = experiment: Test C greenhouse herbicide test, postemergence
Procedure, shortened: (§2)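 Postemergence foliar treatment, 1- to 4-leaf stage (2–18 cm), peat/vermiculite medium; greenhouse 13–15 d; visual rating vs controls, 0 = no effect, 100 = complete control; dash = no result.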

[14] = tested on: oat, wild (wild oat, Avena fatua); experiment: Test C greenhouse herbicide test, postemergence
Procedure, shortened: as §2

[15] = Postemergence, 31 g ai/ha, 0 to 100 scale (0 no effect, 100 complete control)
[16] = Postemergence, 125 g ai/ha, scale 0 to 100, 0 is no effect, 100 is complete control
[17] = Postemergence, 250 g ai/ha, scale 0 to 100, 0 no effect, 100 complete control, 13 to 15 d
[18] = Preemergence, 31 g ai/ha, scale 0 to 100, 0 is no effect, 100 is complete control
[19] = Preemergence, 62 g ai/ha, scale 0 to 100, 0 is no effect, 100 is complete control
[20] = Preemergence, 125 g ai/ha, scale 0 to 100, 0 is no effect, 100 is complete control
[21] = Preemergence, 250 g ai/ha, scale 0 to 100 (0 no effect, 100 complete control)
[22] = postemergence, 62 g ai/ha, scale 0 to 100, 0 no effect, 100 complete control

Structure (SMILES): Cc1ccc2ccc(C)c(-c3c(O)c(C)nn(C)c3=O)c2c1 [Compound 60]
- Barnyardgrass plant response rating [1, 15]: 20
- Plant response rating, Barnyardgrass [1, 16]: 35
- Plant response rating, Barnyardgrass [1, 17]: 65
- Plant response rating, Barnyardgrass [1, 18]: 10
- Plant response rating, Barnyardgrass [1, 19]: 40
- Plant response rating, Barnyardgrass [1, 20]: 85
- Barnyardgrass plant response rating [1, 21]: 90
- Barnyardgrass plant response rating [1, 22]: 25
- Blackgrass plant response rating [2, 15]: 50
- Plant response rating, Blackgrass [2, 16]: 85
- Plant response rating, Blackgrass [2, 17]: 90
- Plant response rating, Blackgrass [2, 18]: 90
- Plant response rating, Blackgrass [2, 19]: 90
- Plant response rating, Blackgrass [2, 20]: 90
- Blackgrass plant response rating [2, 21]: 90
- Blackgrass plant response rating [2, 22]: 60
- Corn plant response rating (corn (Zea mays); [15]): 10
- Plant response rating, Corn (corn (Zea mays); [16]): 30
- Plant response rating, Corn (corn (Zea mays); [17]): 35
- Plant response rating, Corn (corn (Zea mays); [18]): 0
- Plant response rating, Corn (corn (Zea mays); [19]): 10
- Plant response rating, Corn (corn (Zea mays); [20]): 30
- Corn plant response rating (corn (Zea mays); [21]): 45
- Corn plant response rating (corn (Zea mays); [22]): 25
- Crabgrass, Large plant response rating [3, 15]: 15
- Plant response rating, Crabgrass, Large [3, 16]: 50
- Plant response rating, Crabgrass, Large [3, 17]: 65
- Plant response rating, Crabgrass, Large [3, 18]: 20
- Plant response rating, Crabgrass, Large [3, 19]: 75
- Plant response rating, Crabgrass, Large [3, 20]: 85
- Crabgrass, Large plant response rating [3, 21]: 95
- Crabgrass, Large plant response rating [3, 22]: 35
- Foxtail, Giant plant response rating [4, 15]: 45
- Plant response rating, Foxtail, Giant [4, 16]: 70
- Plant response rating, Foxtail, Giant [4, 17]: 90
- Plant response rating, Foxtail, Giant [4, 18]: 75
- Plant response rating, Foxtail, Giant [4, 19]: 85
- Plant response rating, Foxtail, Giant [4, 20]: 100
- Foxtail, Giant plant response rating [4, 21]: 100
- Foxtail, Giant plant response rating [4, 22]: 60
- Johnsongrass plant response rating [5, 15]: 5
- Plant response rating, Johnsongrass [5, 16]: 55
- Plant response rating, Johnsongrass [5, 17]: 45
- Plant response rating, Johnsongrass [5, 18]: 5
- Plant response rating, Johnsongrass [5, 19]: 20
- Plant response rating, Johnsongrass [5, 20]: 40
- Johnsongrass plant response rating [5, 21]: 60
- Johnsongrass plant response rating [5, 22]: 35
- Lambsquarters plant response rating [6, 15]: 85
- Plant response rating, Lambsquarters [6, 16]: 95
- Plant response rating, Lambsquarters [6, 17]: 100
- Plant response rating, Lambsquarters [6, 18]: 80
- Plant response rating, Lambsquarters [6, 19]: 85
- Plant response rating, Lambsquarters [6, 20]: 95
- Lambsquarters plant response rating [6, 21]: 90
- Lambsquarters plant response rating [6, 22]: 90
- Morningglory plant response rating [7, 15]: 90
- Plant response rating, Morningglory [7, 16]: 100
- Plant response rating, Morningglory [7, 17]: 100
- Plant response rating, Morningglory [7, 18]: 85
- Plant response rating, Morningglory [7, 19]: 98
- Plant response rating, Morningglory [7, 20]: 98
- Morningglory plant response rating [7, 21]: 100
- Morningglory plant response rating [7, 22]: 98
- Nutsedge, Yellow plant response rating [8, 15]: 85
- Plant response rating, Nutsedge, Yellow [8, 16]: 90
- Plant response rating, Nutsedge, Yellow [8, 17]: 95
- Plant response rating, Nutsedge, Yellow [8, 18]: 45
- Plant response rating, Nutsedge, Yellow [8, 19]: 45
- Plant response rating, Nutsedge, Yellow [8, 20]: 85
- Nutsedge, Yellow plant response rating [8, 21]: 85
- Nutsedge, Yellow plant response rating [8, 22]: 85
- Oilseed Rape plant response rating [9, 15]: 5
- Plant response rating, Oilseed Rape [9, 16]: 85
- Plant response rating, Oilseed Rape [9, 17]: 80
- Plant response rating, Oilseed Rape [9, 18]: 30
- Plant response rating, Oilseed Rape [9, 19]: 85
- Plant response rating, Oilseed Rape [9, 20]: 90
- Oilseed Rape plant response rating [9, 21]: 90
- Oilseed Rape plant response rating [9, 22]: 5
- Pigweed plant response rating [10, 15]: 85
- Plant response rating, Pigweed [10, 16]: 95
- Plant response rating, Pigweed [10, 17]: 98
- Plant response rating, Pigweed [10, 18]: 100
- Plant response rating, Pigweed [10, 19]: 100
- Plant response rating, Pigweed [10, 20]: 100
- Pigweed plant response rating [10, 21]: 100
- Pigweed plant response rating [10, 22]: 85
- Velvetleaf plant response rating [11, 15]: 40
- Plant response rating, Velvetleaf [11, 16]: 90
- Plant response rating, Velvetleaf [11, 17]: 95
- Plant response rating, Velvetleaf [11, 18]: 75
- Plant response rating, Velvetleaf [11, 19]: 85
- Plant response rating, Velvetleaf [11, 20]: 95
- Velvetleaf plant response rating [11, 21]: 98
- Velvetleaf plant response rating [11, 22]: 85
- Waterhemp plant response rating [12, 15]: 65
- Plant response rating, Waterhemp [12, 16]: 98
- Plant response rating, Waterhemp [12, 17]: 98
- Plant response rating, Waterhemp [12, 18]: 100
- Plant response rating, Waterhemp [12, 19]: 100
- Plant response rating, Waterhemp [12, 20]: 100
- Waterhemp plant response rating [12, 21]: 100
- Waterhemp plant response rating [12, 22]: 90
- Wheat plant response rating [13, 15]: 5
- Plant response rating, Wheat [13, 16]: 30
- Plant response rating, Wheat [13, 17]: 15
- Plant response rating, Wheat [13, 18]: 10
- Plant response rating, Wheat [13, 19]: 40
- Plant response rating, Wheat [13, 20]: 45
- Wheat plant response rating [13, 21]: 70
- Wheat plant response rating [13, 22]: 5
- Kochia plant response rating (kochia (Kochia scoparia); [15]): 90
- Plant response rating, Kochia (kochia (Kochia scoparia); [16]): 100
- Plant response rating, Kochia (kochia (Kochia scoparia); [17]): 100
- Kochia plant response rating (kochia (Kochia scoparia); [22]): 90
- Oat, Wild plant response rating [14, 15]: 85
- Plant response rating, Oat, Wild [14, 16]: 95
- Plant response rating, Oat, Wild [14, 17]: 95
- Oat, Wild plant response rating [14, 22]: 95

Structure (SMILES): Cc1nn(C)c(=O)c(-c2c(C)sc3ccccc23)c1O [Compound 65]
- Barnyardgrass plant response rating [1, 15]: 10
- Plant response rating, Barnyardgrass [1, 16]: 35
- Plant response rating, Barnyardgrass [1, 17]: 50
- Barnyardgrass plant response rating [1, 22]: 15
- Blackgrass plant response rating [2, 15]: 5
- Plant response rating, Blackgrass [2, 16]: 10
- Plant response rating, Blackgrass [2, 17]: 40
- Blackgrass plant response rating [2, 22]: 5
- Corn plant response rating (corn (Zea mays); [15]): 5
- Plant response rating, Corn (corn (Zea mays); [16]): 5
- Plant response rating, Corn (corn (Zea mays); [17]): 5
- Corn plant response rating (corn (Zea mays); [22]): 5
- Crabgrass, Large plant response rating [3, 15]: 5
- Plant response rating, Crabgrass, Large [3, 16]: 20
- Plant response rating, Crabgrass, Large [3, 17]: 25
- Crabgrass, Large plant response rating [3, 22]: 20
- Foxtail, Giant plant response rating [4, 15]: 10
- Plant response rating, Foxtail, Giant [4, 16]: 35
- Plant response rating, Foxtail, Giant [4, 17]: 60
- Foxtail, Giant plant response rating [4, 22]: 20
- Johnsongrass plant response rating [5, 15]: 5
- Plant response rating, Johnsongrass [5, 16]: 5
- Plant response rating, Johnsongrass [5, 17]: 5
- Johnsongrass plant response rating [5, 22]: 5
- Lambsquarters plant response rating [6, 15]: 90
- Plant response rating, Lambsquarters [6, 16]: 95
- Plant response rating, Lambsquarters [6, 17]: 100
- Lambsquarters plant response rating [6, 22]: 95
- Morningglory plant response rating [7, 15]: 75
- Plant response rating, Morningglory [7, 16]: 95
- Plant response rating, Morningglory [7, 17]: 95
- Morningglory plant response rating [7, 22]: 85
- Nutsedge, Yellow plant response rating [8, 15]: 25
- Plant response rating, Nutsedge, Yellow [8, 16]: 60
- Plant response rating, Nutsedge, Yellow [8, 17]: 65
- Nutsedge, Yellow plant response rating [8, 22]: 50
- Oilseed Rape plant response rating [9, 15]: 0
- Plant response rating, Oilseed Rape [9, 16]: 0
- Plant response rating, Oilseed Rape [9, 17]: 5
- Oilseed Rape plant response rating [9, 22]: 0
- Pigweed plant response rating [10, 15]: 90
- Plant response rating, Pigweed [10, 16]: 98
- Plant response rating, Pigweed [10, 17]: 100
- Pigweed plant response rating [10, 22]: 90
- Velvetleaf plant response rating [11, 15]: 10
- Plant response rating, Velvetleaf [11, 16]: 65
- Plant response rating, Velvetleaf [11, 17]: 75
- Velvetleaf plant response rating [11, 22]: 20
- Waterhemp plant response rating [12, 15]: 60
- Plant response rating, Waterhemp [12, 16]: 75
- Plant response rating, Waterhemp [12, 17]: 85
- Waterhemp plant response rating [12, 22]: 75
- Wheat plant response rating [13, 15]: 0
- Plant response rating, Wheat [13, 16]: 0
- Plant response rating, Wheat [13, 17]: 0
- Wheat plant response rating [13, 22]: 0
- Kochia plant response rating (kochia (Kochia scoparia); [15]): 90
- Plant response rating, Kochia (kochia (Kochia scoparia); [16]): 90
- Plant response rating, Kochia (kochia (Kochia scoparia); [17]): 100
- Kochia plant response rating (kochia (Kochia scoparia); [22]): 90
- Oat, Wild plant response rating [14, 15]: 25
- Plant response rating, Oat, Wild [14, 16]: 50
- Plant response rating, Oat, Wild [14, 17]: 70
- Oat, Wild plant response rating [14, 22]: 35

Source: patent US10597388B2, “Pyridazinone herbicides” (FMC CORPORATION, priority 2014, dated 2020)
